Here are results for 24 molecules from paper PMC9963587 (Molecules, 2023).

Like-named read-outs stand apart in the source and are kept apart here. Where only a bound is given, the exact number is not on record here.

For orientation: melting point means the temperature, or range, at which the solid turns liquid. In general, Kd refers to the free concentration of one partner at which half of the binding sites on the other are occupied at equilibrium, for simple one-to-one binding. Read a high Kd as lower affinity. As usually defined, the IC50 is the point on the concentration scale where inhibition reaches its midpoint. A low value points to greater potency in that assay.

One series can be described thus: in vitro. The settings on record: human.
The target of the next series is LASV GP2 (Lassa virus, UniProt P08669). The experiment in a line: biochemical. Conditions: for kon: read-out: ka. The class given is binding.
For series [1], the system named is LASVpv (LASV pseudotyped virus bearing LASV GPC, Josiah strain). Nature of the series: microbe, parasite or virus in culture. It counts as cell-based, Lassa virus.
The mark [2] stands for this setting: Mammarenavirus lassaense, HEK293, 48 h.

LASV GP2, sequence (P08669 260-491 limits assumed): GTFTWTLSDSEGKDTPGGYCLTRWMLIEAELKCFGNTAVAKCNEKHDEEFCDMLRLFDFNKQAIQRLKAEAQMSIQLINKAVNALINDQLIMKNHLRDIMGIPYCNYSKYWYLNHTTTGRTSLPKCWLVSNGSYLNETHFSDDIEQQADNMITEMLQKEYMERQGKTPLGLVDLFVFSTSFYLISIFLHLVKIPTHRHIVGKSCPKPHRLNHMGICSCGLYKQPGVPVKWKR

Consider `CCOc1ccc(/C=C\c2ccc3c(c2)ncn3-c2ccc(OC(C)C)cc2)cc1` [Compound 7d−Z, (Z)-5-(4-ethoxystyryl)-1-(4-isopropoxyphenyl)-1H-benzo[d]imidazole], for which the melting point lay within 161 to 162 °C. For the same molecule, the CC50 in “in vitro” stood at 17 µM. Besides, at LASV GP2, the Kd was determined as 0.307 µM, the kd is 0.02 s⁻¹ and the kon was 86500 M⁻¹ s⁻¹. The same molecule had an IC50 in series [1] of 0.0136 µM. Further, the IC50 in series [1] (setting [2]) is at most 0.015 µM.
As to `CC(C)Oc1ccc(-n2cnc3cc(/C=C/c4ccc(C(C)(C)C)cc4)ccc32)cc1` [Compound 7a−E, (E)-5-(4-(tert-butyl)styryl)-1-(4-isopropoxyphenyl)-1H-benzo[d]imidazole], the melting point fell in the range of 161 to 162 °C. In addition, the CC50 in “in vitro” was over 100 µM. This molecule also displayed an IC50 in series [1] (setting [2]) of over 0.05 µM.
As for `CC(C)Oc1ccc(-n2cnc3cc(/C=C/c4ccc5ccccc5c4)ccc32)cc1` [Compound 7h−E, (E)-1-(4-isopropoxyphenyl)-5-(2-(naphthalen-2-yl)vinyl)-1H-benzo[d]imidazole], the melting point fell in the range of 172 to 173 °C. The same molecule had a CC50 in the series “in vitro” of over 100 µM. This molecule displayed an IC50 in series [1] (setting [2]) of over 0.05 µM.
In turn, `COc1ccc(-n2cnc3cc(NCc4ccc(C(C)C)cc4)ccc32)cc1` [ST−193, reference compound] showed a CC50 in the series “in vitro” of 56.3 µM. Further, on LASV GP2, the affinity, expressed as Kd, was 0.2 µM; the kd turned out to be 0.01 s⁻¹; the kon worked out at 83200 M⁻¹ s⁻¹. Besides, in series [1] (setting [2]), 0.0445 µM corresponded to half-maximal inhibition (IC50).
With `COc1ccc(-n2cnc3cc(NCc4ccc(OC)c(O)c4)ccc32)cc1` [Compound 13a, 2-methoxy-5-(((1-(4-methoxyphenyl)-1H-benzo[d]imidazol-5-yl)amino)methyl)phenol], the melting point lay within 182.1 to 183.3 °C. In “in vitro”, this molecule yielded a CC50 of 62.6 µM. Moreover, at LASV GP2, the affinity, expressed as Kd, was 2.78 µM; the kd was found to be 0.03 s⁻¹; the kon worked out at 13200 M⁻¹ s⁻¹. This molecule also returned a concentration for half-maximal inhibition (IC50) in series [1] (setting [2]) of 0.0476 µM.
With `CC(C)Oc1ccc(-n2cnc3cc(/C=C\c4ccc(C#N)cc4)ccc32)cc1` [Compound 7b−Z, (Z)-4-(2-(1-(4-isopropoxyphenyl)-1H-benzo[d]imidazol-5-yl)vinyl) benzonitrile], the melting point was 165 to 166 °C. In addition, the CC50 in “in vitro” worked out at 23.6 µM. Also, at LASV GP2, the dissociation constant Kd turned out to be 73.4 µM, the kd stood at 0.28 s⁻¹ and the kon is 3910 M⁻¹ s⁻¹. In addition, the IC50 in series [1] (setting [2]) was over 0.05 µM.
`CCOc1ccc(/C=C/c2ccc3c(c2)ncn3-c2ccc(OC(C)C)cc2)cc1` [Compound 7d−E, (E)-5-(4-ethoxystyryl)-1-(4-isopropoxyphenyl)-1H-benzo[d]imidazole] registered a melting point of 152 to 153 °C. Moreover, the CC50 in the series “in vitro” was over 100 µM. In series [1] (setting [2]), this molecule gave an IC50 of over 0.05 µM.
In turn, `CC(C)Oc1ccc(-n2cnc3cc(/C=C\c4ccc5ccccc5c4)ccc32)cc1` [Compound 7h−Z, (Z)-1-(4-isopropoxyphenyl)-5-(2-(naphthalene-2-yl)vinyl)-1H-benzo[d]imidazole] displayed a melting point of 170 to 171 °C. The molecule also displayed a CC50 in the series “in vitro” of 18.9 µM. Further, at LASV GP2, the equilibrium dissociation constant (Kd) worked out at 0.129 µM, the kd was 0.03 s⁻¹ and the kon turned out to be 294000 M⁻¹ s⁻¹. The molecule further returned an IC50 in series [1] of 0.00758 µM. The IC50 in series [1] (setting [2]) is at most 0.015 µM.
In turn, `CC(C)Oc1ccc(-n2cnc3cc(/C=C/c4ccc(OC(F)(F)F)cc4)ccc32)cc1` [Compound 7f−E, (E)-1-(4-isopropoxyphenyl)-5-(4-(trifluoromethoxy)styryl)-1H-benzo[d]imidazole] came in with a melting point of 160 to 162 °C. The molecule also gave a CC50 in the series “in vitro” of over 100 µM. Besides, in series [1] (setting [2]), the IC50 is over 0.05 µM.
In turn, `CC(C)Oc1ccc(-n2cnc3cc(/C=C/c4ccc(C#N)cc4)ccc32)cc1` [Compound 7b−E, (E)-4-(2-(1-(4-isopropoxyphenyl)-1H-benzo[d]imidazol-5-yl)vinyl) benzonitrile] displayed a melting point of 161 to 162 °C. The same molecule came in with a CC50 in “in vitro” of over 100 µM. In series [1] (setting [2]), this molecule returned an IC50 of over 0.05 µM.
The corresponding values for `CC(C)Oc1ccc(-n2cnc3cc(/C=C/c4ccc(OC(F)F)cc4)ccc32)cc1` [Compound 7e−E, (E)-5-(4-(difluoromethoxy)styryl)-1-(4-isopropoxyphenyl)-1H-benzo[d]imidazole] are 173 to 174 °C, over 100 µM and over 0.05 µM.
With `COc1ccc(-n2cnc3cc(NCc4cc(OC)c(OC)cc4OC)ccc32)cc1` [Compound 13d, 1-(4-methoxyphenyl)-N-(2,4,5-trimethoxybenzyl)-1H-benzo[d]imidazol-5-amine], the melting point lay within 167.8 to 169.8 °C. The molecule also showed a CC50 in the series “in vitro” of 135 µM. In addition, on LASV GP2, the Kd worked out at 0.656 µM, the kd was 0.03 s⁻¹ and the kon came to 56700 M⁻¹ s⁻¹. The midpoint of inhibition in series [1] (setting [2]), the IC50, lay at 0.0138 µM.
As to `COc1ccc(-n2cnc3cc(NCc4ccc(C(F)(F)F)cc4)ccc32)cc1` [Compound 13j, 1-(4-methoxyphenyl)-N-(4-(trifluoromethyl)benzyl)-1H-benzo[d]imidazol-5-amine], the melting point lay in the range of 198.3 to 200.5 °C. Besides, the CC50 in the series “in vitro” is 109 µM. For the same molecule, on LASV GP2, the Kd was found to be 5.49 µM, the kd is 0.04 s⁻¹ and the kon was 8530 M⁻¹ s⁻¹. Besides, the IC50 in series [1] (setting [2]) was 0.0638 µM.
The molecule `Cc1ccc(/C=C/c2ccc3c(c2)ncn3-c2ccc(OC(C)C)cc2)cc1` [Compound 7c−E, (E)-1-(4-isopropoxyphenyl)-5-(4-methylstyryl)-1H-benzo[d]imidazole] came in with a melting point of 168 to 170 °C. The CC50 in “in vitro” was over 100 µM. In series [1] (setting [2]), this molecule had an IC50 of over 0.05 µM.
Take `CC(C)Oc1ccc(-n2cnc3cc(/C=C\c4ccc(C(F)(F)F)cc4)ccc32)cc1` [Compound 7g−Z, (Z)-1-(4-isopropoxyphenyl)-5-(4-(trifluoromethyl)styryl)-1H-benzo[d]imidazole]: the melting point is 165 to 166 °C. This molecule also had a CC50 in the series “in vitro” of 24.4 µM. At LASV GP2, binding was put at a Kd of 2.7 µM and the kd turned out to be 0.13 s⁻¹. This molecule also had an IC50 in series [1] (setting [2]) of 0.0291 µM.
Regarding `CC(C)Oc1ccc(-n2cnc3cc(/C=C\c4ccc(OC(F)(F)F)cc4)ccc32)cc1` [Compound 7f−Z, (Z)-1-(4-isopropoxyphenyl)-5-(4-(trifluoromethoxy)styryl)-1H-benzo[d]imidazole], the melting point is 161 to 162 °C. In the series “in vitro”, this molecule gave a CC50 of 9.47 µM. On LASV GP2, binding was characterised by a dissociation constant (Kd) of 2.19 µM, the kd is 0.03 s⁻¹ and the kon turned out to be 15600 M⁻¹ s⁻¹. The molecule further showed a half-inhibitory concentration (IC50) in series [1] (setting [2]) of 0.0339 µM.
With `COc1ccc(-n2cnc3cc(NCc4ccc(C(C)(C)C)cc4)ccc32)cc1` [Compound 13f, N-(4-(tert-butyl)benzyl)-1-(4-methoxyphenyl)-1H-benzo[d]imidazol-5-amine], the melting point lay in the range of 175.8 to 176.9 °C. Moreover, the CC50 in “in vitro” was found to be 102 µM. In addition, at LASV GP2, the Kd was 0.173 µM, the kd is 0.03 s⁻¹ and the kon was found to be 178000 M⁻¹ s⁻¹. In series [1] (setting [2]), this molecule returned an IC50 of 0.0119 µM.
`Cc1ccc(/C=C\c2ccc3c(c2)ncn3-c2ccc(OC(C)C)cc2)cc1` [Compound 7c−Z, (Z)-1-(4-isopropoxyphenyl)-5-(4-methylstyryl)-1H-benzo[d]imidazole] returned a melting point of 168 to 169 °C. This molecule also came in with a CC50 in “in vitro” of 20.9 µM. Also, on LASV GP2, the Kd was 1.18 µM, the kd was found to be 0.07 s⁻¹ and the kon is 65600 M⁻¹ s⁻¹. In series [1] (setting [2]), this molecule gave an IC50 of 0.0369 µM.
`COc1ccc(-n2cnc3cc(NCc4cccc(O)c4)ccc32)cc1` [Compound 13h, 3-(((1-(4-methoxyphenyl)-1H-benzo[d]imidazol-5-yl)amino)methyl)phenol] displayed a melting point of 182.9 to 184.3 °C. In addition, the CC50 in “in vitro” was 40.3 µM. Moreover, on LASV GP2, the Kd amounted to 36 µM, the kd turned out to be 0.42 s⁻¹ and the kon stood at 11900 M⁻¹ s⁻¹. Further, the IC50 in series [1] (setting [2]) is over 0.1 µM.
In turn, `COc1ccc(-n2cnc3cc(NCc4cc(OC)c(O)c(OC)c4)ccc32)cc1` [Compound 13e, 2,6-dimethoxy-4-(((1-(4-methoxyphenyl)-1H-benzo[d]imidazol-5-yl)amino)methyl)phenol] gave a melting point of 115.7 to 118.1 °C. This molecule also showed a CC50 in “in vitro” of 88.8 µM. On LASV GP2, the Kd is 4.39 µM, the kd was 0.22 s⁻¹ and the kon was 50300 M⁻¹ s⁻¹. The molecule further displayed an IC50 in series [1] (setting [2]) of 0.0505 µM.
In turn, `COc1ccc(-n2cnc3cc(NCc4ccc(O)c(OC)c4)ccc32)cc1` [Compound 13b, 2-methoxy-4-(((1-(4-methoxyphenyl)-1H-benzo[d]imidazol-5-yl)amino)methyl)phenol] displayed a melting point of 157.6 to 159 °C. In addition, the CC50 in “in vitro” was 87.3 µM. Besides, at LASV GP2, binding was put at a Kd of 3.93 µM, the kd stood at 0.20 s⁻¹ and the kon came to 52300 M⁻¹ s⁻¹. Besides, the IC50 in series [1] (setting [2]) amounted to 0.0658 µM.
On to `COc1ccc(CNc2ccc3c(c2)ncn3-c2ccc(OC)cc2)cc1` [Compound 13g, N-(4-methoxybenzyl)-1-(4-methoxyphenyl)-1H-benzo[d]imidazol-5-amine], for which the melting point is 128 to 129.3 °C. In the series “in vitro”, this molecule displayed a CC50 of 100 µM. In addition, on LASV GP2, the Kd was determined as 4.69 µM, the kd stood at 0.30 s⁻¹ and the kon was determined as 65900 M⁻¹ s⁻¹. For the same molecule, the IC50 in series [1] (setting [2]) was determined as 0.0554 µM.
Consider `CC(C)Oc1ccc(-n2cnc3cc(/C=C/c4ccc(C(F)(F)F)cc4)ccc32)cc1` [Compound 7g−E, (E)-1-(4-isopropoxyphenyl)-5-(4-(trifluoromethyl)styryl)-1H-benzo[d]imidazole], for which the melting point fell in the range of 166 to 167 °C. The molecule also returned a CC50 in the series “in vitro” of over 100 µM. The molecule also displayed an IC50 in series [1] (setting [2]) of over 0.05 µM.
In turn, `CC(C)Oc1ccc(-n2cnc3cc(/C=C\c4ccc(C(C)(C)C)cc4)ccc32)cc1` [Compound 7a−Z, (Z)-5-(4-(tert-butyl)styryl)-1-(4-isopropoxyphenyl)-1H-benzo[d]imidazole] returned a melting point of 172 to 174 °C. In addition, the CC50 in “in vitro” stood at 3.01 µM. On LASV GP2, binding was characterised by a dissociation constant (Kd) of 0.146 µM, the kd was determined as 0.04 s⁻¹ and the kon worked out at 328000 M⁻¹ s⁻¹.
